The values that follow come from patent US6056944A, “Pharmaceutical compositions for oral use including an NSAID and ceramides” (Synthelabo, priority 1995, dated 2000).

This assay deals with inflammation of the adult rat paw. Put plainly: carragheenin-induced inflammation of the adult rat paw (edema volume). Format: in vivo. The note with it: gavage, 1 mg/kg, from 4 hours onwards, persisting up to 5 hours. The method, then: These tests consist in inducing inflammation of the adult rat paw and monitoring the development of the edema by measuring the volume of the paw.
The experimental conditions were as follows: rats, weighing from 200 to 220 g, were treated by gavage, 18 hours and 1 hour before administering the inflammatory agent, with the NSAI product to be studied, which was or was not combined with ceramides and which was administered in a volume of 0.5 ml. Control groups were given an 0.9% solution of sodium chloride.
The inflammatory reaction is induced by subcutaneously injecting 0.1 ml of a suspension of carragheenin in physiological saline. The volume of the paw is measured, using a mercury plethysmograph, before the inflammation starts, 30 minutes after it has started, and then every hour up to the 6th hour, and then finally 24 hours afterwards. The changes in volume are measured in cm on a graduated scale.
The tests were carried out with ketoprofen lysine, which was administered at 1 and 3 mg/kg and which was or was not combined with 0.5% of ceramides, and with ketoprofen, which was administered at 1 mg/kg and which was or was not combined with 1% of ceramides.

For the compound `CC(C(=O)O)c1cccc(C(=O)c2ccccc2)c1` (stereo not shown) [ketoprofen], the “anti-inflammatory effect as compared with the control” value was “significant as compared with the control”.
